Values of other authors, collected in US20090136549A1, “TRANSDERMAL PATCH CONTAINING RASAGILINE FOR TREATMENT OR PROPHYLAXIS OF NERVOUS SYSTEM DISEASE AND ITS PREPARATION PROCESS” (Chongqing Pharmaceutical Research Institute Co., Ltd., priority 2006, published 2009).

What was measured:
patients with early PD = conditions: rasagiline 2 mg/d for 1 year
[1] = oral administration

C#CCN[C@@H]1CCc2ccccc21 [rasagiline]
mean UPDRS score lower than that of the patients administered with placebo in the last 6 months (patients with early PD): 2.29 units
mean UPDRS score lower than that of the patients administered with rasagiline 1 mg/d for 1 year (patients with early PD): 1.82 units
reduction of blood peak concentration by eating [1]: 60%
